Like-named read-outs stand apart in the source and are kept apart here.
Columns and labels:
Type in all cases: cell-based
[1] = target: VR1/TRPV1 receptor (Homo sapiens, UniProt Q8NER1); assay: IC50 (human) after pH stimulus; settings: for inhibition at 1 µM: ne = no effect; for inhibition at 1 µM / inhibition at 10 µM / inhibition at 0.1 µM: read-out: inhibition in percent, IC50 (human) after pH stimulus
[2] = target: T1, vanilloid receptor (VR1) (Homo sapiens, UniProt Q8NER1); assay: FLIPR Ca2+ influx assay on CHO K1 cells transfected with the VR1 gene (pharmacological method II)
T1 construct: expressed in transfected cells; host or cells: CHO K1 cells (ECACC), stably transfected
T1 sequence (Q8NER1 whole entry): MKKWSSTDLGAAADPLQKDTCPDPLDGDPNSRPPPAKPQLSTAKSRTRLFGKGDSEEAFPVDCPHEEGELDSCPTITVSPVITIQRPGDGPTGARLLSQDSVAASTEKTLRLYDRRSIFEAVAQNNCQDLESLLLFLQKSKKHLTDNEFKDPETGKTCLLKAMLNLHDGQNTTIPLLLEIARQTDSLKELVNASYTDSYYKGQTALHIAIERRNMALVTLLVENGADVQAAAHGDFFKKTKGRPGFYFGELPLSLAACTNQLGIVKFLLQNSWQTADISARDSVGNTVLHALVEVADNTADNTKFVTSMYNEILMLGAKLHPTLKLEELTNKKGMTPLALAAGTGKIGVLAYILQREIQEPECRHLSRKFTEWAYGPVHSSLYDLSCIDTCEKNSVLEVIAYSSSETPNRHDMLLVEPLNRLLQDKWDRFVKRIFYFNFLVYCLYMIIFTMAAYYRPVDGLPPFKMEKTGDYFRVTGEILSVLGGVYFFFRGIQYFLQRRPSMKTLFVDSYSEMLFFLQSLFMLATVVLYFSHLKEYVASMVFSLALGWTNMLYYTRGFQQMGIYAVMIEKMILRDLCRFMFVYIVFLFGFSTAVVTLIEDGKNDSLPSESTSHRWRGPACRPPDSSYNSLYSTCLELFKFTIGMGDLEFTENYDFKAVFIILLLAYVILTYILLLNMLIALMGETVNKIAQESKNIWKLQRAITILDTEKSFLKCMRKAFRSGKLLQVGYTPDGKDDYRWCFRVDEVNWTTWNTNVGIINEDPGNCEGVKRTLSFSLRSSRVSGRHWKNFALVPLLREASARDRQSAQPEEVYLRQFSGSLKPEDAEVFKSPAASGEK

[3] = target: T2, vanilloid receptor 1 (VR1/TRPV1) of the rat species (Rattus norvegicus, UniProt O35433); assay: FLIPR Ca2+ influx assay on rat dorsal root ganglia cells (pharmacological method I)
T2 construct: The spinal column is removed from decapitated rats; from tissue; host or cells: primary cells dissociated from rat dorsal root ganglia
T2 sequence (O35433 whole entry): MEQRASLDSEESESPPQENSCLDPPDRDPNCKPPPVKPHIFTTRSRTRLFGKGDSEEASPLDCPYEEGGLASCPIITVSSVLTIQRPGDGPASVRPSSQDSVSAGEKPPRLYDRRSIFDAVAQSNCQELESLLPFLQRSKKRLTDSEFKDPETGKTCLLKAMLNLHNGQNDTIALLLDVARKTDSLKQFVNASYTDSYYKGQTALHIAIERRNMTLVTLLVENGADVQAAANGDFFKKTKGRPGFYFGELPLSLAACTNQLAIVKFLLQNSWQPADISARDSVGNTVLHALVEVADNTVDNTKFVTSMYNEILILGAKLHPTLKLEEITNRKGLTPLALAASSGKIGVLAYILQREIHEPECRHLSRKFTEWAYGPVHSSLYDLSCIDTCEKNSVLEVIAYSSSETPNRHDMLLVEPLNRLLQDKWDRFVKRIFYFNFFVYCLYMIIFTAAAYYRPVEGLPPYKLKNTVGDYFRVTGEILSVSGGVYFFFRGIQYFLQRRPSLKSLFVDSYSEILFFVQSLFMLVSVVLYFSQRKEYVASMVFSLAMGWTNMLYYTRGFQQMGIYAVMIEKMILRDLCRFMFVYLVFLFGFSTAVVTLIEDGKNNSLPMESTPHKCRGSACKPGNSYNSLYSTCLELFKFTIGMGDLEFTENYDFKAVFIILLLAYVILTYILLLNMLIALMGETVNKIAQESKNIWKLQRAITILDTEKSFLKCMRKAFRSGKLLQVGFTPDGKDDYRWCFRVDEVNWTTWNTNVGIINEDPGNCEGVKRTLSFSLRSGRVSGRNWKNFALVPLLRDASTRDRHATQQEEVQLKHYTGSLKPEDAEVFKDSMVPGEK
Description: I. Functional Investigation of the Vanilloid Receptor 1 (VR1/TRPV1 Receptor)
The agonistic or antagonistic action of the substances to be investigated on the vanilloid receptor 1 (VR1/TRPV1) of the rat species may be determined by the following assay. According to this assay, the influx of Ca^2+ through the receptor channel is quantified with the assistance of a Ca^2+-sensitive dye (type Fluo-4, Molecular Probes Europe BV, Leiden, Netherlands) in a Fluorescent Imaging Plate Reader (FLIPR, Molecular Devices, Sunnyvale, USA).
The spinal column is removed from decapitated rats and is placed directly in cold, i.e. located in an ice bath, HBSS buffer (Hank's buffered saline solution, Gibco Invitrogen GmbH, Karlsruhe, Germany) combined with 1 vol. % (percent by volume) of an AA solution (antibiotic/antimycotic solution, PAA, Pasching, Austria). The spinal column is cut open longitudinally and removed together with fasciae from the spinal canal. The dorsal root ganglia (DRGs) are then removed and in turn stored in cold HBSS buffer combined with 1 vol. % of an AA solution. The DRGs, from which all traces of blood and spinal nerves have been removed, are in each case transferred into 500 μL of cold collagenase type 2 (PAA, Pasching, Austria) and incubated for 35 minutes at 37° C. […] Once incubation is complete, the enzyme solution is carefully removed by pipette and the DRGs, which are left behind, are in each case combined with 500 μL of complete medium.
The DRGs are in each case repeatedly suspended, drawn by means of a syringe through […], no. 12 and no. 16 cannulas and transferred into 50 mL Falcon microtubes and each tube is made up to 15 mL with complete medium. The contents of each Falcon microtube are in each case filtered through a 70 μm Falcon filter insert and centrifuged for 10 minutes at 1200 revolutions and room temperature. The resultant pellet is in each case resuspended in 250 μL of complete medium and the cell count determined.
The number of cells in the suspension is adjusted to 3×10^5 per mL and a 150 μL portion of this suspension is in each case placed in a well of the cell culture plate which has been coated as described above.
The cells are then loaded with 2 μM Fluo-4 and 0.01 vol. % Pluronic F127 (Molecular Probes Europe BV, Leiden, Netherlands) in HBSS buffer (Hank's buffered saline solution, Gibco Invitrogen GmbH, Karlsruhe, Germany) for 30 min at 37° C., washed 3× with HBSS buffer and, after a further 15 minutes' incubation at room temperature, used for Ca^2+ measurement in the FLIPR assay. […] Quantification proceeds by measuring the highest fluorescence intensity (FC, fluorescence counts) over time.
The FLIPR protocol comprises 2 additions of substance. The compounds to be tested (10 μM) are firstly pipetted onto the cells and Ca^2+ influx is compared with the control (capsaicin 10 μM). This provides the percentage activation relative to the Ca^2+ signal after addition of 10 μM of capsaicin (CP). After 5 minutes' incubation, 100 nM of capsaicin are added and the influx of Ca^2+ is again determined.
Desensitising agonists and antagonists result in suppression of Ca^2+ influx. The percentage inhibition in comparison with the maximum achievable inhibition with 10 μM capsaicin is calculated.
Triplicate determinations (n═3) are performed and these are repeated in at least 3 independent experiments […].

[4] = table 4, capsaicin, read-out: Ki (human) Cap.
[5] = table 4, capsaicin, read-out: Ki (rat) Cap.

Sequence of VR1/TRPV1 receptor (Q8NER1 whole entry): as the sequence (Q8NER1 whole entry) above

Row | Compound | inhibition at 1 µM [1] [%] | Ki [2, 4] [nM] | Ki [3, 5] [nM] | IC50 ([1]; table 4) [nM] | further results
1 | CC(C)OC1CCN(c2nc(C(F)(F)F)ccc2CNC(=O)C(C)c2ccc(NS(C)(=O)=O)c(F)c2)CC1 (centres unmarked) [Example 162, 2-(3-fluoro-4-methylsulfonamido-phenyl)-N-(4-isopropoxy-6′-trifluoromethyl-3,4,5,6-tetrahydro-2H-[1,2′]bipyridinyl-3′-ylmethyl)-propionamide] | 58 | 3 | 1.6 | – | –
2 | CC(C(=O)NCc1ccc(C(F)(F)F)cc1F)c1ccc(NS(C)(=O)=O)c(F)c1 (centres unmarked) [Example 114, 2-(3-fluoro-4-methylsulfonamido-phenyl)-N-(2-fluoro-4-trifluoromethyl-benzyl)-propionamide] | – | 68.7 | 28.1 | 2360 | –
3 | CC(C(=O)NCc1ccc(C(F)(F)F)nc1N1CCCCCCC1)c1ccc(NS(C)(=O)=O)c(F)c1 (centres unmarked) [Example 128, N-(2-azocan-1-yl-6-trifluoromethyl-pyridin-3-ylmethyl)-2-(3-fluoro-4-methylsulfonamido-phenyl)-propionamide] | – | 0.7 | 1 | 27.8 | –
4 | CC(C(=O)NCc1ccc(C(F)(F)F)nc1N1CCC2(CC1)CC(c1ccccc1)=NO2)c1ccc(NS(C)(=O)=O)c(F)c1 (centres unmarked) [Example 252, 2-(3-fluoro-4-methylsulfonamido-phenyl)-N-[2-(3-phenyl-1-oxa-2,8-diaza-spiro[4.5]dec-2-en-8-yl)-6-trifluoromethyl-pyridin-3-ylmethyl]-propionamide] | – | 6.1 | 17.9 | 289 | –
5 | CC(C)CCCc1nc(C(F)(F)F)ccc1CNC(=O)C(C)c1ccc(NS(C)(=O)=O)c(F)c1 (centres unmarked) [Example 268, 2-(3-fluoro-4-methylsulfonamido-phenyl)-N-[2-(4-methyl-pentyl)-6-trifluoromethyl-pyridin-3-ylmethyl]-propionamide] | – | 0.9 | 0.8 | 17 | –
6 | Cc1cc(C(C)C(=O)NCc2ccc(C(F)(F)F)nc2N2CCC(C(F)(F)F)CC2)ccc1NS(C)(=O)=O (centres unmarked) [Example 195, N-(4,6′-bis-trifluoromethyl-3,4,5,6-tetrahydro-2H-[1,2′]bipyridinyl-3′-ylmethyl)-2-(4-methylsulfonamido-3-methyl-phenyl)-propionamide] | – | 1.1 | 0.4 | 61 | –
7 | CC(C(=O)NCc1ccc(C(F)(F)F)cc1N1CCC(C(F)(F)F)CC1)c1ccc(NS(C)(=O)=O)c(F)c1 (centres unmarked) [Example 230, 2-(3-fluoro-4-methylsulfonamido-phenyl)-N-[4-trifluoromethyl-2-(4-trifluoromethyl-piperidin-1-yl)-benzyl]-propionamide] | – | 0.4 | 0.6 | 20.1 | –
8 | CC(C)COc1nc(C(F)(F)F)ccc1CNC(=O)C(C)c1ccc(NS(C)(=O)=O)c(F)c1 (centres unmarked) [Example 95, 2-(3-fluoro-4-methylsulfonamido-phenyl)-N-(2-isobutoxy-6-trifluoromethyl-pyridin-3-ylmethyl)-propionamide] | – | 0.5 | 0.8 | 52.6 | –
9 | CC(C(=O)NCc1ccc(C(F)(F)F)nc1N1CCCCC1C)c1ccc(NS(C)(=O)=O)c(F)c1 (centres unmarked) [Example 283, 2-(3-fluoro-4-methylsulfonamido-phenyl)-N-(2-methyl-6′-trifluoromethyl-3,4,5,6-tetrahydro-2H-[1,2′]bipyridinyl-3′-ylmethyl)-propionamide] | 51 | 2.9 | 4.5 | – | inhibition at 10 µM [1]: 51%
10 | CC(C(=O)NCc1ccc(C(F)(F)F)nc1N1CCN(C2CCCCC2)CC1)c1ccc(NS(C)(=O)=O)c(F)c1 (centres unmarked) [Example 260, N-[2-(4-cyclohexyl-piperazin-1-yl)-6-trifluoromethyl-pyridin-3-ylmethyl]-2-(3-fluoro-4-methylsulfonamido-phenyl)-propionamide] | 51 | 21.6 | 25.3 | – | inhibition at 10 µM [1]: 66%
11 | CC(C(=O)NCc1ccc(C(F)(F)F)nc1OCC1CCCCC1)c1ccc(NS(C)(=O)=O)c(F)c1 (centres unmarked) [Example 270, N-(2-cyclohexylmethoxy-6-trifluoromethyl-pyridin-3-ylmethyl)-2-(3-fluoro-4-methylsulfonamido-phenyl)-propionamide] | – | 0.7 | – | 19.7 | Ki ([3]; Ki (rat) Cap., table 4, capsaicin): 0.5 nM
12 | C[C@H](C(=O)NCc1ccc(C(F)(F)F)nc1N1CCOCC1)c1ccc(NS(C)(=O)=O)c(F)c1 [Example 72, (S)-2-(3-Fluor-4-(methylsulfonamido)phenyl)-N-((2-morpholino-6-(trifluoromethyl)pyridin-3-yl)methyl)propanamide] | – | – | – | – | IC50 ([1]; Table 2): 1660 nM; Ki ([2]; Table 2, displacement of capsaicin (100 nM), Cheng-Prusoff, read-out: Ki (human)): 32.6 nM; Ki ([3]; Table 2, displacement of capsaicin (100 nM), Cheng-Prusoff, read-out: Ki (rat)): 124 nM
13 | CC(C(=O)NCc1ccc(C(F)(F)F)nc1-c1cccc(Cl)c1)c1ccc(NS(C)(=O)=O)c(F)c1 (centres unmarked) [Example 149, N-[2-(3-chloro-phenyl)-6-trifluoromethyl-pyridin-3-ylmethyl]-2-(3-fluoro-4-methylsulfonamido-phenyl)-propionamide] | – | 0.5 | 0.7 | 9.7 | –
14 | Cc1cc(C(C)C(=O)NCc2ccc(C(F)(F)F)nc2N2CCN(c3ccccc3)CC2)ccc1NS(C)(=O)=O (centres unmarked) [Example 203, 2-(4-methylsulfonamido-3-methyl-phenyl)-N-[2-(4-phenyl-piperazin-1-yl)-6-trifluoromethyl-pyridin-3-ylmethyl]-propionamide] | 24 | 3 | 3.3 | – | inhibition at 0.1 µM [1]: 0%
15 | CC(C(=O)NCc1ccc(C(F)(F)F)nc1-c1ccc(F)c(Cl)c1)c1ccc(NS(C)(=O)=O)c(F)c1 (centres unmarked) [Example 118] | – | 0.2 | 0.2 | 7.6 | –
16 | CC1CCCN(c2nc(C(F)(F)F)ccc2CNC(=O)C(C)c2ccc(NS(C)(=O)=O)c(F)c2)C1 (centres unmarked) [Example 282, 2-(3-fluoro-4-methylsulfonamido-phenyl)-N-(3-methyl-6′-trifluoromethyl-3,4,5,6-tetrahydro-2H-[1,2′]bipyridinyl-3′-ylmethyl)-propionamide] | 57 | 0.8 | 1.2 | – | inhibition at 10 µM [1]: 62%
17 | COc1ccc(N2CCN(c3cc(C(F)(F)F)ccc3CNC(=O)C(C)c3ccc(NS(C)(=O)=O)c(F)c3)CC2)cc1 (centres unmarked) [Example 249, 2-(3-fluoro-4-methylsulfonamido-phenyl)-N-{2-[4-(4-methoxy-phenyl)-piperazin-1-yl]-4-trifluoromethyl-benzyl}-propionamide] | 70 | 1.6 | 0.2 | – | inhibition at 0.1 µM [1]: 31%
18 | CCC1CCN(c2cc(C(F)(F)F)ccc2CNC(=O)C(C)c2ccc(NS(C)(=O)=O)c(F)c2)CC1 (centres unmarked) [Example 229, N-[2-(4-ethyl-piperidin-1-yl)-4-trifluoromethyl-benzyl]-2-(3-fluoro-4-methylsulfonamido-phenyl)-propionamide] | – | 0.7 | 0.7 | 17.7 | –
19 | CC(C(=O)NCc1ccc(C(F)(F)F)cc1N1CCC(c2ccc(F)cc2)CC1)c1ccc(NS(C)(=O)=O)c(F)c1 (centres unmarked) [Example 255, 2-(3-fluoro-4-methylsulfonamido-phenyl)-N-{2-[4-(4-fluoro-phenyl)-piperidin-1-yl]-4-trifluoromethyl-benzyl}-propionamide] | – | 0.9 | 1.3 | 101 | –

Source: US8710233B2 (Gruenenthal GmbH, priority 2005, dated 2014)
